Assay results as given in US6525001B1, “Substituted pyrimidine and pyridine herbicides” (Mid-American Commercialization Corporation, priority 1997, dated 2003).

Assays:
Experiment in all cases: Test B pre-/postemergence
Format in all cases: in vivo
Set-up in all cases: key: 0 is no effect; 10 is complete control
[1] = test system: blackgrass (Alopecurus myosuroides)
Procedure, shortened: (§1)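 Response scores run from 0, meaning no effect, to 10, meaning complete control, assigned by eye relative to controls twelve to sixteen days after spraying. Treatment was both preemergence on planted seed and postemergence on plants at the 1- to 4-leaf stage.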

[2] = test system: broadleaf signalgrass (Brachiaria decumbens); settings: Preemergence
Procedure, shortened: as §1

[3] = test system: cocklebur (Xanthium strumarium)
Procedure, shortened: as §1

[4] = test system: corn (Zea mays)
Procedure, shortened: as §1

[5] = test system: crabgrass (Digitaria sanguinalis)
Procedure, shortened: as §1

[6] = test system: giant foxtail (Setaria faberii)
Procedure, shortened: as §1

[7] = test system: momingglory (Ipomoea hederacea)
Procedure, shortened: as §1

[8] = test system: pigweed (Amaranthus retroflexus)
Procedure, shortened: as §1

[9] = test system: purple nutsedge (Cyperus rotundus)
Procedure, shortened: as §1

[10] = test system: soybean (Glycine max)
Procedure, shortened: as §1

[11] = test system: sugar beet (Beta vulgaris)
Procedure, shortened: as §1

[12] = test system: velvetleaf (Abutilon theophrasti)
Procedure, shortened: as §1

[13] = test system: wheat (Triticum aestivum)
Procedure, shortened: as §1

[14] = test system: wild oat (Avena fatua)
Procedure, shortened: as §1

## Cc1cnc(-c2ccc(Cl)cc2)nc1Cn1ccc(C(F)(F)F)n1 [Compound 6]
[1]; Rate 62 g/ha, Postemergence
  Plant response rating, Blackgrass: 0
[1]; Rate 62 g/ha, Preemergence
  Blackgrass plant response rating: 0
[1]; Rate 125 g/ha, Postemergence
  Plant response rating, Blackgrass: 2
[1]; Rate 125 g/ha, Preemergence
  Blackgrass plant response rating: 0
[1]; Rate 250 g/ha, Postemergence
  Plant response rating, Blackgrass: 2
[1]; Rate 250 g/ha, Preemergence
  Plant response rating, Blackgrass: 0
[1]; Rate 500 g/ha, Postemergence
  Plant response rating, Blackgrass: 2
[1]; Rate 500 g/ha, Preemergence
  Plant response rating, Blackgrass: 4
[2]; Rate 62 g/ha
  B. signalgrass plant response rating: 1
[2]; Rate 125 g/ha
  B. signalgrass plant response rating: 4
[2]; Rate 250 g/ha
  Plant response rating, B. signalgrass: 9
[2]; Rate 500 g/ha
  Plant response rating, B. signalgrass: 9
[3]; Rate 62 g/ha, Postemergence
  Plant response rating, Cocklebur: 5
[3]; Rate 62 g/ha, Preemergence
  Cocklebur plant response rating: 0
[3]; Rate 125 g/ha, Postemergence
  Plant response rating, Cocklebur: 6
[3]; Rate 125 g/ha, Preemergence
  Cocklebur plant response rating: 0
[3]; Rate 250 g/ha, Postemergence
  Plant response rating, Cocklebur: 7
[3]; Rate 250 g/ha, Preemergence
  Plant response rating, Cocklebur: 0
[3]; Rate 500 g/ha, Postemergence
  Plant response rating, Cocklebur: 7
[3]; Rate 500 g/ha, Preemergence
  Plant response rating, Cocklebur: 0
[4]; Rate 62 g/ha, Postemergence
  Plant response rating, Corn: 3
[4]; Rate 62 g/ha, Preemergence
  Corn plant response rating: 0
[4]; Rate 125 g/ha, Postemergence
  Plant response rating, Corn: 3
[4]; Rate 125 g/ha, Preemergence
  Corn plant response rating: 0
[4]; Rate 250 g/ha, Postemergence
  Plant response rating, Corn: 3
[4]; Rate 250 g/ha, Preemergence
  Plant response rating, Corn: 0
[4]; Rate 500 g/ha, Postemergence
  Plant response rating, Corn: 3
[4]; Rate 500 g/ha, Preemergence
  Plant response rating, Corn: 0
[5]; Rate 62 g/ha, Postemergence
  Plant response rating, Crabgrass: 5
[5]; Rate 62 g/ha, Preemergence
  Crabgrass plant response rating: 1
[5]; Rate 125 g/ha, Postemergence
  Plant response rating, Crabgrass: 8
[5]; Rate 125 g/ha, Preemergence
  Crabgrass plant response rating: 2
[5]; Rate 250 g/ha, Postemergence
  Plant response rating, Crabgrass: 8
[5]; Rate 250 g/ha, Preemergence
  Plant response rating, Crabgrass: 8
[5]; Rate 500 g/ha, Postemergence
  Plant response rating, Crabgrass: 9
[5]; Rate 500 g/ha, Preemergence
  Plant response rating, Crabgrass: 10
[6]; Rate 62 g/ha, Preemergence
  Giant foxtail plant response rating: 2
[6]; Rate 125 g/ha, Postemergence
  Plant response rating, Giant foxtail: 4
[6]; Rate 125 g/ha, Preemergence
  Giant foxtail plant response rating: 6
[6]; Rate 250 g/ha, Postemergence
  Plant response rating, Giant foxtail: 5
[6]; Rate 250 g/ha, Preemergence
  Plant response rating, Giant foxtail: 9
[6]; Rate 500 g/ha, Postemergence
  Plant response rating, Giant foxtail: 6
[6]; Rate 500 g/ha, Preemergence
  Plant response rating, Giant foxtail: 10
[7]; Rate 62 g/ha, Postemergence
  Plant response rating, Morningglory: 3
[7]; Rate 62 g/ha, Preemergence
  Morningglory plant response rating: 1
[7]; Rate 125 g/ha, Postemergence
  Plant response rating, Morningglory: 8
[7]; Rate 125 g/ha, Preemergence
  Morningglory plant response rating: 1
[7]; Rate 250 g/ha, Postemergence
  Plant response rating, Morningglory: 8
[7]; Rate 250 g/ha, Preemergence
  Plant response rating, Morningglory: 2
[7]; Rate 500 g/ha, Postemergence
  Plant response rating, Morningglory: 8
[7]; Rate 500 g/ha, Preemergence
  Plant response rating, Morningglory: 2
[8]; Rate 62 g/ha, Postemergence
  Plant response rating, Redroot pigweed: 5
[8]; Rate 62 g/ha, Preemergence
  Redroot pigweed plant response rating: 0
[8]; Rate 125 g/ha, Postemergence
  Plant response rating, Redroot pigweed: 7
[8]; Rate 125 g/ha, Preemergence
  Redroot pigweed plant response rating: 3
[8]; Rate 250 g/ha, Postemergence
  Plant response rating, Redroot pigweed: 9
[8]; Rate 250 g/ha, Preemergence
  Plant response rating, Redroot pigweed: 6
[8]; Rate 500 g/ha, Postemergence
  Plant response rating, Redroot pigweed: 9
[8]; Rate 500 g/ha, Preemergence
  Plant response rating, Redroot pigweed: 6
[9]; Rate 62 g/ha, Postemergence
  Plant response rating, Nutsedge: 2
[9]; Rate 62 g/ha, Preemergence
  Nutsedge plant response rating: 0
[9]; Rate 125 g/ha, Preemergence
  Nutsedge plant response rating: 0
[9]; Rate 250 g/ha, Postemergence
  Plant response rating, Nutsedge: 2
[9]; Rate 250 g/ha, Preemergence
  Plant response rating, Nutsedge: 0
[9]; Rate 500 g/ha, Postemergence
  Plant response rating, Nutsedge: 3
[9]; Rate 500 g/ha, Preemergence
  Plant response rating, Nutsedge: 0
[10]; Rate 62 g/ha, Postemergence
  Plant response rating, Soybean: 6
[10]; Rate 62 g/ha, Preemergence
  Soybean plant response rating: 0
[10]; Rate 125 g/ha, Postemergence
  Plant response rating, Soybean: 6
[10]; Rate 125 g/ha, Preemergence
  Soybean plant response rating: 0
[10]; Rate 250 g/ha, Postemergence
  Plant response rating, Soybean: 6
[10]; Rate 250 g/ha, Preemergence
  Plant response rating, Soybean: 0
[10]; Rate 500 g/ha, Postemergence
  Plant response rating, Soybean: 6
[10]; Rate 500 g/ha, Preemergence
  Plant response rating, Soybean: 0
[11]; Rate 62 g/ha, Postemergence
  Plant response rating, Sugarbeets: 7
[11]; Rate 62 g/ha, Preemergence
  Sugarbeets plant response rating: 0
[11]; Rate 125 g/ha, Postemergence
  Plant response rating, Sugarbeets: 8
[11]; Rate 125 g/ha, Preemergence
  Sugarbeets plant response rating: 3
[11]; Rate 250 g/ha, Postemergence
  Plant response rating, Sugarbeets: 8
[11]; Rate 250 g/ha, Preemergence
  Plant response rating, Sugarbeets: 9
[11]; Rate 500 g/ha, Postemergence
  Plant response rating, Sugarbeets: 9
[11]; Rate 500 g/ha, Preemergence
  Plant response rating, Sugarbeets: 10
[12]; Rate 62 g/ha, Postemergence
  Plant response rating, Velvetleaf: 7
[12]; Rate 62 g/ha, Preemergence
  Velvetleaf plant response rating: 1
[12]; Rate 125 g/ha, Postemergence
  Plant response rating, Velvetleaf: 7
[12]; Rate 125 g/ha, Preemergence
  Velvetleaf plant response rating: 2
[12]; Rate 250 g/ha, Postemergence
  Plant response rating, Velvetleaf: 8
[12]; Rate 250 g/ha, Preemergence
  Plant response rating, Velvetleaf: 2
[12]; Rate 500 g/ha, Postemergence
  Plant response rating, Velvetleaf: 8
[12]; Rate 500 g/ha, Preemergence
  Plant response rating, Velvetleaf: 3
[13]; Rate 62 g/ha, Postemergence
  Plant response rating, Wheat: 1
[13]; Rate 62 g/ha, Preemergence
  Wheat plant response rating: 0
[13]; Rate 125 g/ha, Postemergence
  Plant response rating, Wheat: 2
[13]; Rate 125 g/ha, Preemergence
  Wheat plant response rating: 0
[13]; Rate 250 g/ha, Postemergence
  Plant response rating, Wheat: 2
[13]; Rate 250 g/ha, Preemergence
  Plant response rating, Wheat: 0
[13]; Rate 500 g/ha, Postemergence
  Plant response rating, Wheat: 3
[13]; Rate 500 g/ha, Preemergence
  Plant response rating, Wheat: 0
[14]; Rate 62 g/ha, Postemergence
  Plant response rating, Wild oats: 0
[14]; Rate 62 g/ha, Preemergence
  Wild oats plant response rating: 0
[14]; Rate 125 g/ha, Postemergence
  Plant response rating, Wild oats: 3
[14]; Rate 125 g/ha, Preemergence
  Wild oats plant response rating: 0
[14]; Rate 250 g/ha, Postemergence
  Plant response rating, Wild oats: 3
[14]; Rate 250 g/ha, Preemergence
  Plant response rating, Wild oats: 2
[14]; Rate 500 g/ha, Postemergence
  Plant response rating, Wild oats: 3
[14]; Rate 500 g/ha, Preemergence
  Plant response rating, Wild oats: 3
